# Test results as given in patent publication US20130143929A1, “FUNGICIDAL IMIDAZOLES” (EI DU PONT DE NEMOURS AND COMPANY, priority 2010, published 2013).
# Marks after values point to notes of the source that are not given here.
# Legend:
# Type in all cases: in vivo
# [1] = system: Blumeria graminis f. sp. tritici (also known as Erysiphe graminis f. sp. tritici, the causal agent of wheat powdery mildew); assay: Test D: wheat powdery mildew, preventive spray on wheat seedlings, visual disease rating; details: wheat powdery mildew, preventive spray on wheat seedlings
# In short: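 Preventive test: seedlings sprayed to run-off and inoculated with powdery mildew spores one day later. Suspensions were made in 50/50 acetone/water with 250 ppm Trem 014 surfactant (200 ppm equals 800 g/ha). Visual ratings after 8 days at 20 °C give percent disease control versus controls.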
# [2] = system: Puccinia recondite f. sp. tritici (the causal agent of wheat leaf rust); assay: Test A: wheat leaf rust, preventive spray on wheat seedlings, visual disease rating; details: wheat leaf rust, preventive spray on wheat seedlings
# In short: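 This was a preventive test: Puccinia recondite f. sp. tritici inoculum was applied one day after compound spray to run-off. Test suspensions were made in 50/50 acetone/water with 250 ppm surfactant, at 200 ppm (800 g/ha equivalent) or 40 ppm. Visual ratings of % disease control relative to controls were made after 24 h of saturated humidity and 7 growth-chamber days, all at 20° C.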
# [3] = system: Botrytis cinerea (the causal agent of tomato Botrytis); assay: Test C: tomato Botrytis, preventive spray on tomato seedlings, visual disease rating; details: tomato Botrytis, preventive spray on tomato seedlings
# In short: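 Preventive test: B. cinerea spore inoculation one day after tomato seedlings were sprayed to run-off with compound suspended in 50/50 acetone–water plus 250 ppm surfactant. Plants held 48 h at 20° C in saturated air, then 3 days at 24° C; visual ratings scored 100 (full control) to 0 versus controls; some entries used 40 ppm.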
# [4] = system: Septoria tritici (the causal agent of wheat leaf blotch); assay: Test B: wheat leaf blotch, preventive spray on wheat seedlings, visual disease rating; details: wheat leaf blotch, preventive spray on wheat seedlings
# In short: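 Preventive test: Septoria tritici spores applied one day after run-off spraying of seedlings (200 ppm equals 800 g/ha; some tests 40 ppm). After 48 h at 24 °C saturated atmosphere and 19 days at 20 °C, disease scored visually as % control relative to untreated plants.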
# [5] = no asterisk (standard test suspension concentration, not 40 ppm)
# [6] = asterisk: 40 ppm test suspension
Compound,"Test D rating (100 = 100% disease control, 0 = no disease control relative to the controls) [1, 5] [%]","Test A rating (100 = 100% disease control, 0 = no disease control relative to the controls) [2, 5] [%]","Test C rating (100 = 100% disease control, 0 = no disease control relative to the controls) [3, 5] [%]","Test B rating (100 = 100% disease control, 0 = no disease control relative to the controls) [4, 5] [%]","Test D rating (100 = 100% disease control, 0 = no disease control relative to the controls) [1, 6]","Test A rating (100 = 100% disease control, 0 = no disease control relative to the controls) [2, 6]","Test C rating (100 = 100% disease control, 0 = no disease control relative to the controls) [3, 6]","Test B rating (100 = 100% disease control, 0 = no disease control relative to the controls) [4, 6]"
COc1cc(F)c(C(O)c2cnc(C)n2-c2ccc(F)cc2F)c(F)c1 (racemic) [compound 257],0,92,0,24,–,–,–,–
COc1cc(F)c(C(O)c2c(Br)nc(C)n2-c2ccc(F)cc2F)c(F)c1 (racemic) [compound 258],0,100,79,95,–,–,–,–
Cc1nc(Br)c(C(O)c2ccc(Cl)cc2Cl)n1-c1ccc(F)cc1F (racemic) [compound 259],0,99,0,100,–,–,–,–
COc1ccc(C(O)c2c(Cl)ncn2-c2c(F)cccc2F)c(Cl)c1 (racemic) [compound 260],96,100,100,100,–,–,–,–
COc1cc(F)c(C(O)c2c(Cl)nc(C)n2-c2ccc(F)cc2F)c(F)c1 (racemic) [compound 269],–,–,–,–,0* %,100* %,66* %,96* %
Cc1nc(Cl)c(C(O)c2ccc(Cl)cc2Cl)n1-c1ccc(F)cc1F (racemic) [compound 270],–,–,–,–,0* %,95* %,0* %,69* %
Cc1ncc(C(O)c2c(F)cc(Cl)cc2F)n1-c1ccc(F)cc1F (racemic) [compound 271],–,–,–,–,0* %,0* %,0* %,17* %
Cc1nc(Cl)c(C(O)c2ccc(F)cc2Br)n1-c1ccc(F)cc1Cl (racemic) [compound 272],–,–,–,–,21* %,100* %,93* %,100* %
Cc1nc(Cl)n(-c2c(F)cc(Cl)cc2F)c1C(O)c1ccc(F)cc1F (racemic) [compound 273],–,–,–,–,0* %,100* %,99* %,100* %
COc1ccc(C(O)c2c(Br)nc(C)n2-c2c(F)cccc2Cl)c(F)c1 (racemic) [compound 275],–,–,–,–,99* %,100* %,100* %,100* %
COc1ccc(C(O)c2c(Br)nc(C)n2-c2c(F)cccc2Cl)c(Cl)c1 (racemic) [compound 276],–,–,–,–,100* %,100* %,100* %,100* %
COc1ccc(C(O)c2c(Cl)nc(C)n2-c2c(F)cccc2Cl)c(F)c1 (racemic) [compound 277],–,–,–,–,97* %,100* %,100* %,100* %
COc1ccc(C(O)c2c(Cl)nc(C)n2-c2c(F)cccc2Cl)c(Cl)c1 (racemic) [compound 278],–,–,–,–,97* %,100* %,100* %,100* %
COc1cc(OC)cc(-n2c(C)nc(Br)c2C(O)c2c(F)cc(F)cc2F)c1 (racemic) [compound 279],–,–,–,–,0* %,0* %,0* %,0* %
COc1cc(F)ccc1C(O)c1c(Br)nc(C)n1-c1c(F)cccc1F (racemic) [compound 281],–,–,–,–,0* %,92* %,0* %,0* %
COc1ccc(C(O)c2cnc(C)n2-c2ccc(F)cc2F)c(Cl)c1 (racemic) [compound 282],–,–,–,–,0* %,92* %,0* %,63* %
COc1ccc(C(O)c2cnc(C)n2-c2ccc(F)cc2F)c(F)c1 (racemic) [compound 283],–,–,–,–,0* %,41* %,0* %,0* %
